This note sets out measurements from patent US10350271B2, “Lipidated peptides for lowering blood glucose” (USTAV ORGANICKE CHEMIE A BIOCHEMIE AKADEMIE VED CR, V.V.I., priority 2014, dated 2019).

For one test, the target named is T1, rat PrRP receptor (Rattus norvegicus, UniProt Q64121).
T1 construct: host or cells: RC-4B/C rat pituitary cell line
T1 sequence (Q64121 1-370): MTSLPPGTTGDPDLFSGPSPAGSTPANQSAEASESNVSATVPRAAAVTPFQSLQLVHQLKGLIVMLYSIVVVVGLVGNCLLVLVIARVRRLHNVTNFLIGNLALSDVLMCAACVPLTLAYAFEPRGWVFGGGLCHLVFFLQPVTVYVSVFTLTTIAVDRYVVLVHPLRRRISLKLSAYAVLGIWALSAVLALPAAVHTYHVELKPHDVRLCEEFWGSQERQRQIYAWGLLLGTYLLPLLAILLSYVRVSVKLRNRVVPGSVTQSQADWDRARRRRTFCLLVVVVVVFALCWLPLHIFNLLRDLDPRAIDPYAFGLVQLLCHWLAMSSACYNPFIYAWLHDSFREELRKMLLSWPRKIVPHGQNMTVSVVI
In words: Competitive binding in RC-4B/C rat pituitary cells (125I-rat PrRP31). The settings on record: for Binding affinity / Ki: RC-4B/C cells; for Binding affinity: statements referring to Table 2; for % of PrRP31, RC-4B/C rat pituitary cells: affinity relative to PrRP31; for Ki: displacement of 125I-rat PrRP31, read-out: Ki, RC-4B/C rat pituitary cells ^25I-rat PrRP31. Put shortly: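 Displacement of rat 125I-PrRP31 ([…]) by test analogs, 10^−11–10^−4 mol·l^−1, on whole RC-4B/C cells, 60 min RT. Bound counts measured by γ-counter in duplicate, ≥3 repeats, analyzed by nonlinear one-site binding regression.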
On the technique in general: In a radioligand displacement assay an active substance lowers the binding of a labelled ligand.

The subject of a further test is C57BL/6 mice. In words: Food intake in fasted mice after SC injection. It counts as in vivo. To be noted: for Effect on food intake in mice: SC; for Food intake in mice % of saline-treated group: 5 mg/kg SC, 45 min after injection. Here is the method:
NMRI mice, C57BL/6 mice, and Wistar rats (AnLab, Prague, Czech Republic) were housed in a temperature of 23° C. and a daily cycle of 12 h light and dark (light from 6:00). They were given ad libitum water and a standard chow diet that contained 25, 9 and 66% of calories of protein, fat and carbohydrate respectively. Energy content of the feed was 3.4 kcal/g (St-1, Mlýn Kocanda, Czech Republic). Db/db mice and their controls (C57BL/6 background) were obtained from Taconic (Denmark), housed under the same conditions as described above, and fed by Altromin (Taconic, Denmark). ZDF-Lepr^fa/Crl, diabetic fa/fa male rats were obtained from Charles River (France), housed under same conditions as described above, and fed with a Purina 5008 diet (IPS Product Supplies Limited, UK). All experiments followed the ethical guidelines for animal experiments and the law of the Czech Republic Nr. 246/1992.
In experiments with C57BL/6 mice or Wistar rats, food intake was measured with overnight fasted animals in individual cages. Food was withdrawn 17 hours prior to injection of lipidated analog of prolactin releasing peptide (PrRP); free access to water was maintained. The administration of either saline, PrRP, or lipidated analogs was performed by SC injection at doses of 1-10 mg/kg (which corresponded to a volume of 0.2 ml/mouse and 0.1 ml/100 g weight of rat). Fifteen minutes after the lipidated analog of prolactin releasing peptide (PrRP) administration, the mice were given pre-weighed food. The food was then weighed every 30 minutes for 5-10 hours. The administration of each dose was performed at least twice, and each group of mice consisted of at least 6 mice.

Square brackets hold non-standard residues; d marks the D form. Ends that are not written are not given here. Peptide text beside a SMILES is read from it. * marks the point of attachment. Palmitoyl = CCCCCCCCCCCCCCCC(=O)*; Myristoyl = CCCCCCCCCCCCCC(=O)*; Nle = CCCC[C@H](N)C(=O)O

Turning to `CCCC[C@H](NC(=O)CNC(=O)[C@H](CCCNC(=N)N)NC(=O)[C@@H]1CCCN1C(=O)[C@H](Cc1ccc(O)cc1)NC(=O)[C@H](Cc1c[nH]c2ccccc12)NC(=O)[C@H](Cc1c[nH]cn1)NC(=O)[C@@H](NC(=O)[C@H](CC(=O)O)NC(=O)[C@H](C)NC(=O)[C@@H]1CCCN1C(=O)[C@H](CCCNC(=N)N)NC(=O)[C@H](CCC(N)=O)NC(=O)[C@H](Cc1c[nH]cn1)NC(=O)[C@@H](N)CO)[C@@H](C)O)C(=O)N[C@@H](Cc1ccccc1)C(=O)N1CCC[C@H]1C(=O)N[C@H](C(=O)N[C@H](C(=O)NCC(=O)N[C@@H](CCCNC(=N)N)C(=O)N[C@H](C(=O)N[C@H](C(=O)N[C@@H](C)C(=O)N[C@@H](CCCNC(=N)N)C(=O)N[C@@H](CC(N)=O)C(=O)NCC(=O)N[C@@H](CCC(=O)O)C(=O)N[C@H](C(=O)N[C@@H](CO)C(=O)N[C@@H](CCCNC(=N)N)C(N)=O)C(C)C)[C@@H](C)O)[C@@H](C)CC)[C@@H](C)CC)[C@@H](C)O` [Analog 19] (H-SHQRPADTHWYPRG[Nle]FPTIGRITARNGEVSR-NH2), the “Binding affinity” value on rat PrRP receptor is “very low binding affinity”. Moreover, the “Effect on food intake in mice” value in the test with C57BL/6 mice is reported as “no effect”.
In the same order, the values of `CCCCCCCCCCCCCC(=O)N[C@@H](CO)C(=O)N[C@@H](Cc1c[nH]cn1)C(=O)N[C@@H](CCC(N)=O)C(=O)N[C@@H](CCCNC(=N)N)C(=O)N1CCC[C@H]1C(=O)N[C@@H](C)C(=O)N[C@@H](CC(=O)O)C(=O)N[C@H](C(=O)N[C@@H](Cc1c[nH]cn1)C(=O)N[C@@H](Cc1c[nH]c2ccccc12)C(=O)N[C@@H](Cc1ccc(O)cc1)C(=O)N1CCC[C@H]1C(=O)N[C@@H](CCCNC(=N)N)C(=O)NCC(=O)N[C@@H](CCCC)C(=O)N[C@@H](Cc1ccccc1)C(=O)N1CCC[C@H]1C(=O)N[C@H](C(=O)N[C@H](C(=O)NCC(=O)N[C@@H](CCCNC(=N)N)C(=O)N[C@H](C(=O)N[C@H](C(=O)N[C@@H](C)C(=O)N[C@@H](CCCNC(=N)N)C(=O)N[C@@H](CC(N)=O)C(=O)NCC(=O)N[C@@H](CCC(=O)O)C(=O)N[C@H](C(=O)N[C@@H](CO)C(=O)N[C@@H](CCCNC(=N)N)C(N)=O)C(C)C)[C@@H](C)O)[C@@H](C)CC)[C@@H](C)CC)[C@@H](C)O)[C@@H](C)O` [Analog 20] (Myristoyl-SHQRPADTHWYPRG[Nle]FPTIGRITARNGEVSR-NH2) are “very low binding affinity” and “no effect”.
On to `CCCCCCCCCCCCCC(=O)N[C@H](Cc1ccccc1)C(=O)N[C@H](CCCNC(=N)N)C(=O)NCC(=O)N[C@H](C(=O)N1CCC[C@H]1C(=O)N[C@@H](CCCNC(=N)N)C(=O)N[C@H](C(=O)NCC(=O)N[C@@H](CCCNC(=N)N)C(=O)NCC(=O)N[C@H](C(=O)N[C@@H](Cc1ccc(O)cc1)C(=O)N[C@@H](Cc1c[nH]c2ccccc12)C(=O)N[C@@H](C)C(=O)N1CCC[C@H]1C(=O)N[C@@H](CC(N)=O)C(=O)N[C@H](C(=O)N[C@@H](CC(=O)O)C(=O)N1CCC[C@H]1C(=O)N[C@H](C(N)=O)[C@@H](C)O)[C@@H](C)CC)[C@@H](C)O)[C@@H](C)CC)C(C)C` [Analog 26] (Myristoyl-[dF][dR]GVPRIGRGTYWAPNIDPT-NH2), for which, at rat PrRP receptor, the “Binding affinity” value was “very low binding affinity” and the “% of PrRP31, RC-4B/C rat pituitary cells” value is 1.4%. In the test on C57BL/6 mice, the “Food intake in mice % of saline-treated group” value (“Food intake in mice %” below) turned out to be 100% and the “Effect on food intake in mice” value was “no effect”.
Turning to `CCCCCCCCCCCCCC(=O)N[C@@H](CO)C(=O)N[C@@H](CCCNC(=N)N)C(=O)N[C@@H](C)C(=O)N[C@@H](Cc1c[nH]cn1)C(=O)N[C@@H](CCC(N)=O)C(=O)N[C@@H](Cc1c[nH]cn1)C(=O)N[C@@H](CO)C(=O)N[C@@H](CCSC)C(=O)N[C@@H](CCC(=O)O)C(=O)N[C@H](C(=O)N[C@@H](CCCNC(=N)N)C(=O)N[C@H](C(=O)N1CCC[C@H]1C(=O)N[C@@H](CC(=O)O)C(=O)N[C@H](C(=O)N[C@@H](CC(N)=O)C(=O)N1CCC[C@H]1C(=O)N[C@@H](C)C(=O)N[C@@H](Cc1c[nH]c2ccccc12)C(=O)N[C@@H](Cc1ccc(O)cc1)C(=O)N[C@H](C(=O)NCC(=O)N[C@@H](CCCNC(=N)N)C(=O)NCC(=O)N[C@H](C(=O)N[C@@H](CCCNC(=N)N)C(=O)N1CCC[C@H]1C(=O)N[C@H](C(=O)NCC(=O)N[C@@H](CCCNC(=N)N)C(=O)N[C@@H](Cc1ccccc1)C(N)=O)C(C)C)[C@@H](C)CC)[C@@H](C)O)[C@@H](C)CC)[C@@H](C)O)[C@@H](C)O` [Analog 46] (Myristoyl-SRAHQHSMETRTPDINPAWYTGRGIRPVGRF-NH2), the “% of PrRP31, RC-4B/C rat pituitary cells” value at rat PrRP receptor was determined as 657%. Moreover, the “Food intake in mice %” value in the test with C57BL/6 mice was 20%.
In the same order, the values of `CCCCCCCCCCCCCCCC(=O)N[C@@H](CO)C(=O)N[C@@H](CCCNC(=N)N)C(=O)N[C@@H](C)C(=O)N[C@@H](Cc1c[nH]cn1)C(=O)N[C@@H](CCC(N)=O)C(=O)N[C@@H](Cc1c[nH]cn1)C(=O)N[C@@H](CO)C(=O)N[C@@H](CCSC)C(=O)N[C@@H](CCC(=O)O)C(=O)N[C@H](C(=O)N[C@@H](CCCNC(=N)N)C(=O)N[C@H](C(=O)N1CCC[C@H]1C(=O)N[C@@H](CC(=O)O)C(=O)N[C@H](C(=O)N[C@@H](CC(N)=O)C(=O)N1CCC[C@H]1C(=O)N[C@@H](C)C(=O)N[C@@H](Cc1c[nH]c2ccccc12)C(=O)N[C@@H](Cc1ccc(O)cc1)C(=O)N[C@H](C(=O)NCC(=O)N[C@@H](CCCNC(=N)N)C(=O)NCC(=O)N[C@H](C(=O)N[C@@H](CCCNC(=N)N)C(=O)N1CCC[C@H]1C(=O)N[C@H](C(=O)NCC(=O)N[C@@H](CCCNC(=N)N)C(=O)N[C@@H](Cc1ccccc1)C(N)=O)C(C)C)[C@@H](C)CC)[C@@H](C)O)[C@@H](C)CC)[C@@H](C)O)[C@@H](C)O` [Analog 47] (Palmitoyl-SRAHQHSMETRTPDINPAWYTGRGIRPVGRF-NH2) are 1202% and 2%.
In the case of `CC[C@H](C)[C@H](NC(=O)CNC(=O)[C@H](CCCNC(=N)N)NC(=O)[C@H](CO)NC(=O)[C@H](C)NC(=O)[C@H](Cc1ccc(O)cc1)NC(=O)[C@H](Cc1c[nH]c2ccccc12)NC(=O)[C@H](C)NC(=O)[C@@H]1CCCN1C(=O)[C@H](CC(N)=O)NC(=O)[C@@H](NC(=O)[C@H](CC(=O)O)NC(=O)[C@@H]1CCCN1C(=O)[C@@H](NC(=O)[C@H](CCCNC(=N)N)NC(=O)[C@@H](NC(=O)[C@H](CCC(=O)O)NC(=O)[C@H](CCSC)NC(=O)[C@H](CO)NC(=O)[C@H](Cc1c[nH]cn1)NC(=O)[C@H](CCCNC(=N)N)NC(=O)[C@H](Cc1c[nH]cn1)NC(=O)[C@@H](NC(=O)[C@H](CCCNC(=N)N)NC(=O)[C@@H](N)CO)[C@@H](C)O)[C@@H](C)CC)[C@@H](C)O)[C@@H](C)CC)C(=O)N[C@@H](CCCNC(=N)N)C(=O)N1CCC[C@H]1C(=O)N[C@H](C(=O)NCC(=O)N[C@@H](CCCNC(=N)N)C(=O)N[C@@H](Cc1ccccc1)C(N)=O)C(C)C` [Human PrRP31, reference compound], on rat PrRP receptor, the Ki was 2.38 ± 0.19 nM and the “% of PrRP31, RC-4B/C rat pituitary cells” value was determined as 207%. The “Food intake in mice %” value in the test with C57BL/6 mice came to 100%.
As to “TPDINPAWYASRGIRPVGRF-NH2 [Human PrRP20, reference compound]”, on rat PrRP receptor, the Ki turned out to be 1.78 ± 0.46 nM and the “% of PrRP31, RC-4B/C rat pituitary cells” value amounted to 277%. The “Food intake in mice %” value with C57BL/6 mice was found to be 100%.
